Where “and” joins values, the source holds several entries; their conditions need not be identical. Equal entries are not always repeated.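 Exposure lasted 48 hours, with cells grown in 96-well plates and compounds tested at five concentrations. GI50 is the concentration that inhibits growth by half. Definition used: TGI = concentration required for complete inhibition of growth.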
Each compound was assayed on NCI-H23 lung (assay: inhibition of tumour cell growth, NCI panel, 48 h).
For `C=C(CNCCO)[C@@H]1CC[C@]2(CO)CC[C@]3(C)[C@H](CC[C@@H]4[C@@]5(C)CCC(N)C(C)(C)[C@@H]5CC[C@]43C)[C@@H]12` (some centres not stated), the GI50 was 4.66 µM and the TGI was 17.6 µM.
Compound `Nc1cc2nc3ccccc3sc-2cc1=O` has a GI50 of 1.54 µM and a TGI of 3.76 µM.
For `COc1cc2nc(-c3ccc(C(F)(F)F)cc3)cc(OCCCN3CCC(O)CC3)c2cc1OC`, the GI50 was 6.16 µM and the TGI was 21 µM.
In the case of `CC(=O)C(CN(C(C)C)C(C)C)C(c1ccccc1)c1c(O)c2ccccc2oc1=O` (configuration not stated), the TGI is reported as > 100 µM.
For `O=C1NNC(=O)c2ccccc2SSc2ccccc2C(=O)NNC(=O)c2ccccc2SSc2ccccc21`, the GI50 was 7.63 µM and the TGI was 50 µM and 59.8 µM.
With `NC(CCc1nc(-c2ccc(Cl)cc2)cs1)C(=O)O` (configuration not stated) the TGI was > 100 µM.
`COc1cc(C(=O)/C=C/c2sc(Cl)nc2Cl)cc(OC)c1OC` was tested, and the GI50 was 1.64 µM and the TGI was 3.04 µM.
`COc1cc2nc(C)nc(N[C@H](C)c3cc(N)cc(C(F)(F)F)c3)c2cc1O[C@H]1CCOC1` showed a GI50 of 13.2 µM and a TGI of 30.6 µM.
In the case of `CCOC(=O)C1=C(C)CC2C(=O)OC(=O)C2C1(C)C` (configuration not stated), the TGI is reported as > 100 µM.
`O=C1c2ccccc2C(=O)c2sc(Nc3cccc(Cl)c3)nc21` gave a TGI of 3.59 µM.
With `Fc1ccc(Nc2ncnc3ccc(-c4cnc5[nH]ccc5c4)cc23)cc1Cl` the GI50 was 8.74 µM and the TGI was > 100 µM.
Work on `CN(C)CCCNC1=C(Cl)C(=O)c2ccccc2C1=O` yielded a GI50 of 1.74 µM and a TGI of 3.87 µM.
`O=C(Nc1ccc(F)cc1F)c1cc(I)ccc1O` showed a GI50 of 2.72 µM and a TGI of 10.4 µM.
In the case of `CCOc1ccccc1-n1c(CN2CCN(C(=O)COc3ccc(CNCCCCCCN4C5CCCC4CC(OC(=O)Nc4cc(C)ccc4OC)C5)cc3)CC2)nc2ccccc2c1=O` (configuration not stated), the GI50 is reported as 1.93 µM and the TGI is reported as 3.66 µM.

What follows are compounds tested on OVCAR-3 ovarian (assay: inhibition of tumour cell growth, NCI panel, 48 h).
With `COc1cc2c(c(OC)c1O)C(=O)C(OC)C(c1ccc(O)c(O)c1)O2` (configuration not stated) the GI50 was 343 nM and the TGI was > 32.7 µM.
`Cn1ccnc1C(=O)/C=C/c1ccc(CC(=O)Nc2ccc(Br)cc2)cc1` was tested, and the GI50 was 4020 nM and the TGI was 14.4 µM.
With `CCOC(=O)Nc1nc2ccc(OCC)cc2s1` the GI50 was > 41600 nM and the TGI was > 100 µM.
`NS(=O)(=O)c1ccccc1C(=O)N/N=C(\c1nc2ccc([N+](=O)[O-])cc2[nH]c1=O)C(O)c1ccc([N+](=O)[O-])cc1` (configuration not stated) was tested, and the TGI was > 100 µM.
`COc1ccc2c(c1)C(=O)/C(=C/c1ccc(OCC(=O)Nc3nccs3)cc1)O2` showed a GI50 of 204 nM and a TGI of 0.398 µM.
In the case of `CC(C)c1ccc(C(C)C(=O)N(CC2=C(C(C)c3ccccn3)c3ccccc3C2)C(C)C)cc1` (configuration not stated), the GI50 is reported as 3260 nM and the TGI is reported as 11.6 µM.
With `Cc1nc2c(nc1C)C(=O)c1ccccc1C2=O` the TGI was 13.3 µM.
`Nc1ccc(C(=O)N/C(=C\c2ccc3c(c2)OCO3)c2nc3[nH]c(=S)[nH]c(=O)c3[nH]2)cc1` was tested, and the TGI was > 100 µM.
Work on `O[C@H]1[C@H]2c3cc4c(cc3CN3CCC(=C[C@@H]1O)[C@H]23)OCO4` yielded a TGI of 11.9 µM.
`O=C(Nc1ccc(I)cc1)c1cc([N+](=O)[O-])ccc1O` showed a GI50 of 3740 nM and a TGI of 32.1 µM.
In the case of `Cc1cc(=O)n2[nH]c(-c3ccc(C(C)(C)C)cc3)cc2n1`, the GI50 is reported as 3240 nM and the TGI is reported as 43.5 µM.
With `CNC(=O)c1ccccc1Nc1nc(Nc2ccc(N3CCOCC3)cc2OC)ncc1Cl` the GI50 was 1730 nM and the TGI was > 53.3 µM.
In the case of `O=C(N/C(=C\c1cc(Cl)ccc1Cl)c1nc2[nH]c(=S)[nH]c(=O)c2[nH]1)c1ccccc1`, the TGI is reported as > 100 µM.
With `O=C(CN1CCN(c2cc3c(cc2F)c(=O)c(C(=O)N/N=C/c2ccccc2O)cn3C2CC2)CC1)N/N=C\c1ccccc1O` the GI50 was 269 nM and the TGI was > 100 µM.
`C=C(CNCCO)[C@@H]1CC[C@]2(CO)CC[C@]3(C)[C@H](CC[C@@H]4[C@@]5(C)CCC(N)C(C)(C)[C@@H]5CC[C@]43C)[C@@H]12` (some centres not stated) was tested, and the GI50 was 7710 nM and the TGI was 20.7 µM.
`Nc1cc2nc3ccccc3sc-2cc1=O` gave a GI50 of 1760 nM and a TGI of 7.09 µM.
In the case of `COc1cc2nc(-c3ccc(C(F)(F)F)cc3)cc(OCCCN3CCC(O)CC3)c2cc1OC`, the GI50 is reported as 6100 nM and the TGI is reported as 22.2 µM.
For `CC(=O)C(CN(C(C)C)C(C)C)C(c1ccccc1)c1c(O)c2ccccc2oc1=O` (configuration not stated), the TGI was > 100 µM.
In the case of `O=C1NNC(=O)c2ccccc2SSc2ccccc2C(=O)NNC(=O)c2ccccc2SSc2ccccc21`, the TGI is reported as 50 µM and > 100 µM.
In the case of `NC(CCc1nc(-c2ccc(Cl)cc2)cs1)C(=O)O` (configuration not stated), the TGI is reported as > 100 µM.
With `COc1cc(C(=O)/C=C/c2sc(Cl)nc2Cl)cc(OC)c1OC` the GI50 was 1770 nM and the TGI was 3.21 µM.
For `COc1cc2nc(C)nc(N[C@H](C)c3cc(N)cc(C(F)(F)F)c3)c2cc1O[C@H]1CCOC1`, the GI50 was 15600 nM and the TGI was 38.4 µM.
For `CCOC(=O)C1=C(C)CC2C(=O)OC(=O)C2C1(C)C` (configuration not stated), the TGI was > 100 µM.
`O=C1c2ccccc2C(=O)c2sc(Nc3cccc(Cl)c3)nc21` was tested, and the TGI was 1.8 µM.
`Fc1ccc(Nc2ncnc3ccc(-c4cnc5[nH]ccc5c4)cc23)cc1Cl` showed a GI50 of 1510 nM and a TGI of 3.73 µM.
With `CN(C)CCCNC1=C(Cl)C(=O)c2ccccc2C1=O` the GI50 was 1690 nM and the TGI was 3.17 µM.
Compound `O=C(Nc1ccc(F)cc1F)c1cc(I)ccc1O` has a GI50 of 3130 nM and a TGI of 23.2 µM.
`CCOc1ccccc1-n1c(CN2CCN(C(=O)COc3ccc(CNCCCCCCN4C5CCCC4CC(OC(=O)Nc4cc(C)ccc4OC)C5)cc3)CC2)nc2ccccc2c1=O` (configuration not stated) was tested, and the GI50 was 1780 nM and the TGI was 3.49 µM.

These compounds were tested on SK-MEL-2 melanoma (assay: inhibition of tumour cell growth, NCI panel, 48 h).
In the case of `COc1cc2c(c(OC)c1O)C(=O)C(OC)C(c1ccc(O)c(O)c1)O2` (configuration not stated), the GI50 is reported as 1280 nM and the TGI is reported as > 100 µM.
`Cn1ccnc1C(=O)/C=C/c1ccc(CC(=O)Nc2ccc(Br)cc2)cc1` was tested, and the GI50 was > 16700 nM and the TGI was > 16.7 µM.
`CCOC(=O)Nc1nc2ccc(OCC)cc2s1` was tested, and the GI50 was 40300 nM and the TGI was > 100 µM.
In the case of `NS(=O)(=O)c1ccccc1C(=O)N/N=C(\c1nc2ccc([N+](=O)[O-])cc2[nH]c1=O)C(O)c1ccc([N+](=O)[O-])cc1` (configuration not stated), the TGI is reported as > 100 µM.
Work on `COc1ccc2c(c1)C(=O)/C(=C/c1ccc(OCC(=O)Nc3nccs3)cc1)O2` yielded a GI50 of 231 nM and a TGI of 0.588 µM.
`CC(C)c1ccc(C(C)C(=O)N(CC2=C(C(C)c3ccccn3)c3ccccc3C2)C(C)C)cc1` (configuration not stated) gave a GI50 of 2550 nM and a TGI of 7.15 µM.
For `Cc1nc2c(nc1C)C(=O)c1ccccc1C2=O`, the TGI was 6.57 µM.
`Nc1ccc(C(=O)N/C(=C\c2ccc3c(c2)OCO3)c2nc3[nH]c(=S)[nH]c(=O)c3[nH]2)cc1` was tested, and the TGI was > 100 µM.
Compound `O[C@H]1[C@H]2c3cc4c(cc3CN3CCC(=C[C@@H]1O)[C@H]23)OCO4` has a TGI of 2.12 µM.
For `O=C(Nc1ccc(I)cc1)c1cc([N+](=O)[O-])ccc1O`, the GI50 was 3540 nM and the TGI was 20.1 µM.
In the case of `Cc1cc(=O)n2[nH]c(-c3ccc(C(C)(C)C)cc3)cc2n1`, the GI50 is reported as 10500 nM and the TGI is reported as 65.5 µM.
Compound `CNC(=O)c1ccccc1Nc1nc(Nc2ccc(N3CCOCC3)cc2OC)ncc1Cl` has a GI50 of 274 nM and a TGI of 2.5 µM.
In the case of `O=C(N/C(=C\c1cc(Cl)ccc1Cl)c1nc2[nH]c(=S)[nH]c(=O)c2[nH]1)c1ccccc1`, the TGI is reported as > 100 µM.
`O=C(CN1CCN(c2cc3c(cc2F)c(=O)c(C(=O)N/N=C/c2ccccc2O)cn3C2CC2)CC1)N/N=C\c1ccccc1O` was tested, and the GI50 was 1660 nM and the TGI was > 100 µM.
Compound `C=C(CNCCO)[C@@H]1CC[C@]2(CO)CC[C@]3(C)[C@H](CC[C@@H]4[C@@]5(C)CCC(N)C(C)(C)[C@@H]5CC[C@]43C)[C@@H]12` (some centres not stated) has a GI50 of 1980 nM and a TGI of 3.65 µM.
Compound `Nc1cc2nc3ccccc3sc-2cc1=O` has a GI50 of 2030 nM and a TGI of 4.24 µM.
In the case of `COc1cc2nc(-c3ccc(C(F)(F)F)cc3)cc(OCCCN3CCC(O)CC3)c2cc1OC`, the GI50 is reported as 3850 nM and the TGI is reported as 16.5 µM.
For `CC(=O)C(CN(C(C)C)C(C)C)C(c1ccccc1)c1c(O)c2ccccc2oc1=O` (configuration not stated), the TGI was > 100 µM.
`O=C1NNC(=O)c2ccccc2SSc2ccccc2C(=O)NNC(=O)c2ccccc2SSc2ccccc21` was tested, and the GI50 was 4930 nM and the TGI was 50 µM and > 100 µM.
With `NC(CCc1nc(-c2ccc(Cl)cc2)cs1)C(=O)O` (configuration not stated) the TGI was > 100 µM.
`COc1cc(C(=O)/C=C/c2sc(Cl)nc2Cl)cc(OC)c1OC` showed a GI50 of 2390 nM and a TGI of 5.86 µM.
With `COc1cc2nc(C)nc(N[C@H](C)c3cc(N)cc(C(F)(F)F)c3)c2cc1O[C@H]1CCOC1` the GI50 was 18000 nM and the TGI was 34.7 µM.
In the case of `CCOC(=O)C1=C(C)CC2C(=O)OC(=O)C2C1(C)C` (configuration not stated), the TGI is reported as > 100 µM.
`O=C1c2ccccc2C(=O)c2sc(Nc3cccc(Cl)c3)nc21` showed a TGI of 3.79 µM.
`Fc1ccc(Nc2ncnc3ccc(-c4cnc5[nH]ccc5c4)cc23)cc1Cl` was tested, and the GI50 was 16600 nM and the TGI was 68.2 µM.
Work on `CN(C)CCCNC1=C(Cl)C(=O)c2ccccc2C1=O` yielded a GI50 of 2110 nM and a TGI of 4.15 µM.
For `O=C(Nc1ccc(F)cc1F)c1cc(I)ccc1O`, the GI50 was 2290 nM and the TGI was 6.07 µM.
Compound `CCOc1ccccc1-n1c(CN2CCN(C(=O)COc3ccc(CNCCCCCCN4C5CCCC4CC(OC(=O)Nc4cc(C)ccc4OC)C5)cc3)CC2)nc2ccccc2c1=O` (configuration not stated) has a GI50 of 1990 nM and a TGI of 3.62 µM.
